Experimental data from patent US9220264B2, “Multimeric forms of antimicrobial peptides” (Singapore Health Services Pte Ltd., priority 2008, dated 2015).
Values after ≈ are worked out from the molar mass of the structure shown. Bridge positions count the residues as written; N and C are the ends. Peptide text beside a SMILES is read from it. I, II: the chains in the order shown.

Key:
[1] = test system: P. aeruginosa ATCC 9027; test: Outer membrane (OM) permeability assay (NPN uptake); assay type: cell-based, Pseudomonas aeruginosa; conditions: 5 mM HEPES buffer pH 7.2; 10 μM NPN; FIG. 13
Method: The membrane impermeable probe N-phenyl-1-naphthyl amine (NPN) was used to probe the OM permeability of peptides. An overnight culture of P. aeruginosa ATCC 9027 was harvested by centrifugation (3000 rpm, 4° C.). The pellet was washed 2 times and resuspended in 5 mM HEPES buffer (pH 7.2) to OD600 of 0.4. The cells were placed in a 10 mm stirred cuvette and NPN was added to a final concentration of 10 μM. Appropriate concentrations of B2088 was added and the increase in fluorescence intensity was monitored on a Quanta Master fluorescence spectrophotometer (Photon Technology International, New Jersey, USA). The excitation and emission wavelengths were set at 350 and 410 nm with slid widths at 2 and 5 nm, respectively. The % NPN uptake was calculated relative to the increase in NPN fluorescence intensity after the addition of 50 μM polymyxin B.
The peptide concentration required to cause 50% increase in the NPN fluorescence intensity (PC50) was measured.

[2] = test system: PA 28753; test: Bacterial viability assay (ED50); assay type: cell-based, Pseudomonas aeruginosa; conditions: 10 mM phosphate buffer; 37° C.; 22 h; read-out: ED50 (Effective dose to kill 50% of bacterial cells)
Method: (§1) Cell viability was conducted for two Gram-negative bacteria (Pa 9027 and Pa 27853). The cultures were grown overnight on trypticase soy (TS) agar and a few isolated colonies were inoculated to achieve a turbidity equivalent to 0.5 McFarland standard. The cell concentration was adjusted to 10^6 CFU/ml with 10 mM phosphate buffer and separated into different tubes to get final concentration of 10^5 CFU/ml. The peptides were added to the individual tubes to obtain concentrations of ⅛ MIC, ¼ MIC, ½ MIC, 1 MIC, 2 MIC and 4 MIC. The tubes were incubated at 37° C. for 22 h. Serial dilution was performed and 100 μL of the suspension was aliquot onto Mueller Hinton Agar (MHA) plate. The plates were incubated for 24 h at 37° C. for colony counting. Positive control was performed at Oh and 22h.

[3] = test system: PA 9027; test: Bacterial viability assay (ED50); assay type: cell-based, Pseudomonas aeruginosa
Method: as §1

[4] = test system: P. aeruginosa; test: Time-kill kinetics assay; assay type: cell-based, Pseudomonas aeruginosa; conditions: both Pseudomonas strains; 1× and 2×MIC; USP phosphate buffer pH 7.2; 35° C.; FIG. 12
Method: The kinetics of bactericidal action was performed by the assay reported before. Briefly, few colonies of overnight grown P. aeruginosa strains were collected from tryptic soy agar plate and suspended in US pharmacopeia phosphate buffer (pH 7.2). The suspension was adjusted to an initial inoculum of 10^6 CFU/mL and incubated with various concentrations of B2088 and B2088—99 at 35° C. 0.1 ml aliquots were withdrawn at various time intervals, diluted 10^2-10^4 fold using the same buffer, plated on tryptic soy agar plates and incubated at 35° C. The colonies were counted after 24 h incubation and expressed as CFU/ml. Buffer without peptides served as a positive control and % bacterial viability is estimated using the following equation: Bacterial viability=1−(CFU/mL)peptide/(CFU/mL)control*100

[5] = test system: LPS; test: Competitive inhibition assay: effect of exogenous LPS on inhibitory activity; assay type: cell-based; conditions: peptide at 1×MIC in MHB; compared to B2088; FIG. 10(C)
Method: Effect of LPS and Mg^2+ on MIC: To examine the interaction of peptide and LPS, the concentration of the latter was added exogenously from (0.001-100 mg/ml) in MHB at a peptide concentration of 1×MIC. The % inhibition was estimated and the amount of LPS required for 50% of antibacterial activity (IC50) was determined.

[6] = test system: Kp ATCC 10031; assay type: cell-based, Klebsiella pneumoniae; conditions: ATCC 10031, 24 h
Method: The minimum inhibitory concentration (MIC) was determined using a broth microdilution method. Different strains of bacterial cells were grown in Mueller Hinton Broth (MHB) overnight. 100 μl of adjusted inoculum in MHB was added to 100 μl of each dilution of peptide or antibiotics dissolved in the broth, so as to yield a final cell density of 10^5 to 10^6 cfu/ml in each well of a microtitre plate. Additional microtitre plates may be used as necessary, if more wells are required for the assay or duplicate plates are required. The microtitre plates were incubated at 35° C. for 24 h and the absorbance at 600 nm (OD600) was monitored every 30 minutes. […] A positive control well contained the broth and organisms (no peptides/antibiotics), and a negative control well contains only the broth. The MIC of peptides for each clinical isolate or reference organism was recorded as the lowest concentration of peptide/antibiotic that inhibited visible growth of the test organism. […]

[7] = test system: Clinical Cadida albicans DF2672R Source: Urine; assay type: cell-based, Candida albicans
Method: (§2) MICs was determined by broth macrodilution method modified from that described by the National Committee for Clinical Laboratory Standards (NCCL). The Mueller Hinton Broth (MHB) at ⅙ strength and without addition of Ca^2+ and Mg^2+ was used for dilution. Serial twofold dilutions of V2 dimer solution was prepared in MHB (⅙ strength) in test tubes. 1 ml of inoculum of test organisms in MHB (⅙ strength) was added to 1 ml of each dilution of V2 dimer to yield as final concentration of 10^4 to 10^5 colony forming units/ml in each test tube. The tubes were incubated at 35° C. for 16 to 20 hours. A positive control containing only the broth and organism, and a negative control tube containing only the broth were also incubated in parallel to the test samples. The above was repeated for each different test organism in separate experiments. The MIC of V2 dimer peptide for each clinical isolate or reference organism was read as the lowest concentration of peptide that inhibited visible growth of the test organism.
(§3) The MIC was also determined for other peptides and compared to gentamicin.

[8] = test system: human conjunctival epithelial cells; assay type: cell-based
Method: The results are from four independent experiments and data points show the mean and standard deviations. The X axis indicates the peptide concentration in μg/ml and the Y axis indicates the % cell viability. The cytotoxicity of V2 dimer were tested against human conjunctival cells according to the method described in WO 2007/126392 and compared with native hBD3. […] Wildtype hBD3 was cytotoxic at concentrations of about 15 μg/ml, however, the V2 dimer was not cytotoxic at concentrations of 100 μg/ml.

[9] = test system: Clinical Staphylococcus aureus DM4001 Source: Eye; assay type: cell-based
Method: as §2, §3

[10] = test system: Clinical Pseudomonas aeruginosa 07DM023376 Source: Eye; assay type: cell-based; conditions: Clinical 07DM023376 Source: Eye
Method: as §2, §3

[11] = test system: Clinical Pseudomonas aeruginosa PAE 249 DM15013 Source: Wound; assay type: cell-based; conditions: Clinical PAE 249 DM15013 Source: Wound
Method: as §2, §3

[12] = test system: Clinical Pseudomonas aeruginosa DM 023104 Source: Eye; assay type: cell-based; conditions: Clinical DM 023104 Source: Eye
Method: as §2, §3

[13] = test system: Clinical Pseudomonas aeruginosa PAE 230 DR4877/07 Source: Sputum; assay type: cell-based; conditions: Clinical PAE 230 DR4877/07 Source: Sputum
Method: as §2, §3

[14] = test system: Escherichia coli ATCC25922; assay type: cell-based
Method: as §2, §3

[15] = test system: Clinical Pseudomonas aeruginosa PAE 240 DU14476/07 Source: Urine; assay type: cell-based; conditions: Clinical PAE 240 DU14476/07 Source: Urine
Method: as §2, §3

[16] = test system: Candida albicans ATCC10231; assay type: cell-based
Method: as §2, §3

[17] = test system: Pseudomonas aeruginosa ATCC 27853; assay type: cell-based
Method: as §2, §3

[18] = test system: Clinical Pseudomonas aeruginosa 07DM 023257 Source: Eye; assay type: cell-based; conditions: Clinical 07DM 023257 Source: Eye
Method: as §2, §3

[19] = test system: Methicillin-resistant staphylococcus aureus (MRSA) DM09808R Source: Eye; assay type: cell-based; conditions: Methicillin-resistant DM09808R Source: Eye
Method: as §2, §3

[20] = test system: Clinical Pseudomonas aeruginosa PAE 239 DM5790/07 Source: Wound; assay type: cell-based; conditions: Clinical PAE 239 DM5790/07 Source: Wound
Method: as §2, §3

[21] = test system: Bacillus cereus ATCC 11778; assay type: cell-based
Method: as §2, §3

[22] = test system: Clinical Escherichia coli DB16027 Source: Blood; assay type: cell-based; conditions: Clinical DB16027 Source: Blood
Method: as §2, §3

[23] = test system: Clinical Pseudomonas aeruginosa DM 023155 Source: Eye; assay type: cell-based; conditions: Clinical DM 023155 Source: Eye
Method: as §2, §3

[24] = test system: Clinical Escherichia coli DU46381R Source: Urine; assay type: cell-based
Method: as §2, §3

[25] = test system: Fusarium solani ATCC 36031; assay type: cell-based
Method: as §2, §3

## N=C(N)NCCC[C@H](NC(=O)CNC(=O)CNC(=O)[C@H](CCCCN)NC(=O)[C@H](CCCNC(=N)N)NC(=O)CNC(=O)[C@@H](N)CCCNC(=N)N)C(=O)N[C@@H](CCCNC(=N)N)C(=O)NCCCC[C@H](NC(=O)[C@H](CCCNC(=N)N)NC(=O)[C@H](CCCNC(=N)N)NC(=O)CNC(=O)CNC(=O)[C@H](CCCCN)NC(=O)[C@H](CCCNC(=N)N)NC(=O)CNC(=O)[C@@H](N)CCCNC(=N)N)C(=O)N[C@@H](CCCCN)C(=O)O [B2088_99, (RGRKGGRR)2KK] (I: H-RGRKGGRRKK-OH / II: H-RGRKGGRR; amide I:9-II:C; N-terminus assumed)
[1]
  PC50 (peptide concentration to cause 50% increase in NPN fluorescence intensity): higher than B2088
[2]
  EC50: 480 ± 30 nM
[3]; 10 mM phosphate buffer, 37° C., 22 h, read-out: ED50 (Effective dose to kill 50% of bacterial cells)
  EC50: 330 ± 50 nM
[3]; Pa 9027 and Pa 27853, Table 22 and FIG. 11
  ED50 compared with B2088: two times lower
[4]
  kill kinetics: faster kill kinetics
[5]
  concentration of LPS to suppress the inhibitory activity: higher concentration of LPS
[6]
  Minimum inhibitory concentration (MIC): 1.5 µM (≈ 3.18 µg/mL)

## CC(C)[C@H](NC(=O)[C@H](CCCCN)NC(=O)[C@H](CCCNC(=N)N)NC(=O)CNC(=O)[C@@H](N)CCCNC(=N)N)C(=O)N[C@H](C(=O)N[C@@H](CCCNC(=N)N)C(=O)N[C@@H](CCCNC(=N)N)C(=O)NCCCC[C@H](NC(=O)[C@H](CCCNC(=N)N)NC(=O)[C@H](CCCNC(=N)N)NC(=O)[C@@H](NC(=O)[C@@H](NC(=O)[C@H](CCCCN)NC(=O)[C@H](CCCNC(=N)N)NC(=O)CNC(=O)[C@@H](N)CCCNC(=N)N)C(C)C)C(C)C)C(=O)N[C@@H](CCCCN)C(=O)O)C(C)C [V2 dimer, (SEQ ID NO: 44)2KK] (I: H-RGRKVVRRKK-OH / II: H-RGRKVVRR; amide I:9-II:C)
[7]
  MIC: 12.5 µg/mL (≈ 5.46 µM)
[8]
  cytotoxicity in comparison with native hBD3: does not show cytotoxicity
[9]
  MIC: 12.5 µg/mL (≈ 5.46 µM)
[10]
  MIC: 12.5 µg/mL (≈ 5.46 µM)
[11]
  MIC: 6.25 µg/mL (≈ 2.73 µM)
[12]
  MIC: 12.5 µg/mL (≈ 5.46 µM)
[13]
  MIC: 12.5 µg/mL (≈ 5.46 µM)
[14]
  MIC: 12.5 µg/mL (≈ 5.46 µM)
[15]
  MIC: 6.25 µg/mL (≈ 2.73 µM)
[16]
  MIC: 12.5 µg/mL (≈ 5.46 µM)
[17]
  MIC: 12.5 µg/mL (≈ 5.46 µM)
[18]
  MIC: 12.5 µg/mL (≈ 5.46 µM)
[19]
  MIC: 12.5 µg/mL (≈ 5.46 µM)
[20]
  MIC: 12.5 µg/mL (≈ 5.46 µM)
[21]
  MIC: 12.5 µg/mL (≈ 5.46 µM)
[22]
  MIC: 6.25 µg/mL (≈ 2.73 µM)
[23]
  MIC: 12.5 µg/mL (≈ 5.46 µM)
[24]
  MIC: 6.25 µg/mL (≈ 2.73 µM)
[25]
  MIC: 25 µg/mL (≈ 10.9 µM)
[6]
  Minimum inhibitory concentration (MIC): 1.4 µM (≈ 3.21 µg/mL)
